The values below come from patent US20070105158A1, “Recombined cell system for deorphanizing g protein-coupled receptors” (Deutsches Institut fur Ernahrungsforschung-Stiftun, priority 2003, published 2007).

The target in assay [1] is T1, rho-tag(39)-Olfr49 (Mus musculus, UniProt Q9Z1V0).
T1 construct: PCR-amplified the full-length coding regions of mouse Olfr49 (1-C6, NM010991); rho-tag(39): first 39 amino acids of bovine rhodopsin (N); expressed in transfected cells
T1 sequence (Q9Z1V0 1-313): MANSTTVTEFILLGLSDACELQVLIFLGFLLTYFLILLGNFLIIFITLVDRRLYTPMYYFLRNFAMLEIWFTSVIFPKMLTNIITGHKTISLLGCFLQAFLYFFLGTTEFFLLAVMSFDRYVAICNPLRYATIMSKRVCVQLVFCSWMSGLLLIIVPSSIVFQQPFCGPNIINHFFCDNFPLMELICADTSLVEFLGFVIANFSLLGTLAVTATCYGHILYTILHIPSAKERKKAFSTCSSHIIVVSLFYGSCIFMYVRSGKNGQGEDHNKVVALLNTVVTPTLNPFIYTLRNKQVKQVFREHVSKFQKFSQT
The assay can be described thus: Odorant-induced Ca2+ influx (FLIPR) in forskolin-pre-treated HeLa-Cx43/CNGA2 cells expressing rho-tag(39)-Olfr49. In kind it is cell-based.

The next assay concerns the target T2, rho-tag(39)-Olfr43 (Mus musculus, UniProt Q7TRX1).
T2 sequence (Q7TRX1 1-313): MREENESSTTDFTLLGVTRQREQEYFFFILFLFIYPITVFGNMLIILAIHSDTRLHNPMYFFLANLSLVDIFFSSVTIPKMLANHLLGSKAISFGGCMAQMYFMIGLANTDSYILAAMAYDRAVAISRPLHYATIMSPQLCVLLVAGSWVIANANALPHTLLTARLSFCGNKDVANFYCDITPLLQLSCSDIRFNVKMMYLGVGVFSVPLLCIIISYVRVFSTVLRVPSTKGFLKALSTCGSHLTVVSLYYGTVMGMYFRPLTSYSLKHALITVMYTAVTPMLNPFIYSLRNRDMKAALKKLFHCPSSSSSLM

The next assay deals with T3, rho-tag(39)-LOC331758 (Mus musculus, UniProt Q7TRX2).
T3 sequence (Q7TRX2 1-313): T2 sequence (Q7TRX1 1-313) with T10I, G106S, A108G, P306H

The next assay has as its target T4, rho-tag(39)-OR1A1 (Homo sapiens, UniProt Q9P1Q5).
T4 sequence (Q9P1Q5 1-309): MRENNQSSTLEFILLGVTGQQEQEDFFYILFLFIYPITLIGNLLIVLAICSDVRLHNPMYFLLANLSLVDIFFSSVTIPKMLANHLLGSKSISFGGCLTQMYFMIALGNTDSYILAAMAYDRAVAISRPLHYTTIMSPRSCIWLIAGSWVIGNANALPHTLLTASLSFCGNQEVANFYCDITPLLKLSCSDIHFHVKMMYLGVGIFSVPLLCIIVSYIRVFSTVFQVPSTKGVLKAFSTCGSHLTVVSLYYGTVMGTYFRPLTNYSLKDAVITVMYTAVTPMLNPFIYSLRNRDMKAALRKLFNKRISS

The target in a further assay is T5, mOR267-1 (Mus musculus, UniProt Q8VBW9).
T5 sequence (Q8VBW9 1-316): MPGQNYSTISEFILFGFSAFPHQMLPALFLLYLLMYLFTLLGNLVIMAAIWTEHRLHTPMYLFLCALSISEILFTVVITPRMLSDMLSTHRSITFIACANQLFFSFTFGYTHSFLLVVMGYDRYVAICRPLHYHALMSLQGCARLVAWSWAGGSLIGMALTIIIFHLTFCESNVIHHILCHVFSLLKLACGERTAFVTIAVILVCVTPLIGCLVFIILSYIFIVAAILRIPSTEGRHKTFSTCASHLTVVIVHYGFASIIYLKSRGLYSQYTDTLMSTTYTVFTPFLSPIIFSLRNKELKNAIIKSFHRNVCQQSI
The settings on record: chimera F2 and rho-tag(39)-full length OR, n=3.

The target in assay [2] is T1, rho-tag(39)-Olfr49. Format: cell-based. To be noted: for Effect of pre-treatment on (−)citronellal-induced cAMP production: (−)citronellal 10 μM, thapsigargin 1 μM. The protocol:
After 40 hours, the cells were pre-incubated with IBMX (100 μM, 30 min) and exposed to (−)citronellal or isoproterenol (2 min). The pre-stimulation with forskolin was generally omitted.
The inventors tested the possibility to follow an increase in cGMP by transfecting of the rat particular guanylyl cyclase type B (GC-B) into HeLa-Cx43/CNGA2 cells, for which the C type natriuretic peptide (CNP) is the known agonist (Lucas et al., 2000). […] The quantitative comparison of the relative potencies of the agonists by determining of their EC50 values is a standard method in the GPCR and agonist-classification.
(In general: Cyclic AMP is a second messenger, typically raised through Gs and lowered through Gi signalling.)

The target of the next assay is T6, Olfr49 (Mus musculus, UniProt Q9Z1V0).
T6 sequence (Q9Z1V0 1-313): T1 sequence (Q9Z1V0 1-313)
To be noted: n=3.

Assay [3] concerns rho-tag(20)-M4 chimeric mouse ORs. Format: cell-based. To be noted: for Responding OR chimeras: 93 OR chimeras.
A further assay has as its target T7, CNGA2 channel (Bos taurus, UniProt Q03041).
T7 construct: expressed in transfected cells
T7 sequence (Q03041 1-663): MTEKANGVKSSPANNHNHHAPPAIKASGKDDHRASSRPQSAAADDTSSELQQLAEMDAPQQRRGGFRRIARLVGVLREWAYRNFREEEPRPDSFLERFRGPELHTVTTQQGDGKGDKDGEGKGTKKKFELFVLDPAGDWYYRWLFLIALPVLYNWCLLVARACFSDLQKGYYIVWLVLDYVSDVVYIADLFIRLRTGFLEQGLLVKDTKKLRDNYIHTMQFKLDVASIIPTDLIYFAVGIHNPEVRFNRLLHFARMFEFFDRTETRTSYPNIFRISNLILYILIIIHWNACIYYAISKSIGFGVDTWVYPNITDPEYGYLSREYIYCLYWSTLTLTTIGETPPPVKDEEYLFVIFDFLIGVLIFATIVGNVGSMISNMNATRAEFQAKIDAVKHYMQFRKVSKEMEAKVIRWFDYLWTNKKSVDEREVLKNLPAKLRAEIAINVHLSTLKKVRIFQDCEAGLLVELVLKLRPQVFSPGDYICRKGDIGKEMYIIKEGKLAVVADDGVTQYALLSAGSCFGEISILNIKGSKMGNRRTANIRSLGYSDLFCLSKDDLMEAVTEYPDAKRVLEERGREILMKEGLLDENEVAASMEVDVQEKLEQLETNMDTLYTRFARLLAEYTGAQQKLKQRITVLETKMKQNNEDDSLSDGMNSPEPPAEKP
Kind of assay: Inhibition of db-cAMP-activated CNGA2-dependent Ca2+ influx into HeLa-Cx43/CNGA2 cells. Format: cell-based, bovine. To be noted: for Block of db-cAMP-induced Ca2+ influx by CNGA2: n=2.

In the next assay the target is T8, Olfr43 (Mus musculus, UniProt Q7TRX1).
T8 sequence (Q7TRX1 1-313): T2 sequence (Q7TRX1 1-313)
To be noted: 1 μM, chimera A1 and rho-tag(39)-full length OR, n=3.

The next assay concerns mOR261-10. The settings on record: 10 μM, chimera H1 and rho-tag(39)-full length OR, n=3.
Assay [4] has as its target T9, homomeric olfactory CNGA2 channel (Rattus norvegicus, UniProt Q00195).
T9 construct: host or cells: HEK293 (in the cited work)
T9 sequence (Q00195 1-664): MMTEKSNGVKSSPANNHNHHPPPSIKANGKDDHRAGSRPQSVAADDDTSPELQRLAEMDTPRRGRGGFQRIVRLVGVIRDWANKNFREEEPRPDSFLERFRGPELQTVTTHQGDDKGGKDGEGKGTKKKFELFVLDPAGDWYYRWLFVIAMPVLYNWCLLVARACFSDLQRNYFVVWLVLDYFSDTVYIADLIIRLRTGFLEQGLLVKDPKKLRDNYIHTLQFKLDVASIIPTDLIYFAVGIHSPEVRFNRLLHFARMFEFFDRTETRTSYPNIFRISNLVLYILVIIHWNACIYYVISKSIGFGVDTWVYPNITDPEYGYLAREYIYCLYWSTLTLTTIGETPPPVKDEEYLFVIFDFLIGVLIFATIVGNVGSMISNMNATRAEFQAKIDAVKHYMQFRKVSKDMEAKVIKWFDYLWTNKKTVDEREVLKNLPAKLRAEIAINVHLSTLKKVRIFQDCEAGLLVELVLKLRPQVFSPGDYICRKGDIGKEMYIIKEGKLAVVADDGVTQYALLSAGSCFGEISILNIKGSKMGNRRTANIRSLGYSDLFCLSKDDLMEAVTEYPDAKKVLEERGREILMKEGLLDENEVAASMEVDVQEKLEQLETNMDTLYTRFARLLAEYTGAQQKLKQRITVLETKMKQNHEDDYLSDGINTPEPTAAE
The settings on record: Finn et al., 1998; cited from earlier work.

A further assay concerns rho-tag(39)-Olfr41. In kind it is cell-based, mouse. The settings on record: 10 μM, thapsigargin pre-treated cells.
The next assay concerns rho-tag(39)-Ors6. In kind it is cell-based, mouse. To be noted: 10 μM, thapsigargin pre-treated cells.
Where [5] appears, read: EC50 for odorant-induced Ca2+ influx, stably expressed rho-tag(39)-Olfr49, forskolin-pre-treated.

Positions count from the first letter of the chain named. Where “and” joins values, the source holds several entries; their conditions need not be identical. Equal values may be shown once. Read-outs that look alike come from different tables or passages of the source.

From the text for rho-tag(39)-LOC331758: (§1) In in situ RNA hybridisation-experiments, the inventors examined the gene expression of Olfr41, Olfr43, Olfr49, MOR261-10, MOR267-1, and Ors6 in OSN of the mouse OE.
From the text for rho-tag(39)-OR1A1: as §1
From the text for rho-tag(39)-Olfr43: as §1

With `CC(C)=CCCC(C)CC=O` (single isomer, unassigned; (+)) [(+)citronellal], the EC50 at rho-tag(39)-Olfr49 [1] (setting [5]) worked out at 2.6 ± 0.4 µM.

Regarding `CC(C)=CCCC(C)CC=O` (single isomer, unassigned; (-)) [(−)citronellal], the EC50 is 2.1 ± 0.2 µM at rho-tag(39)-Olfr43; 3.2 ± 0.8 µM at rho-tag(39)-LOC331758; 2.2 ± 0.4 µM on rho-tag(39)-OR1A1; 0.4 µM and 0.49 µM at rho-tag(39)-Olfr49 [2] (EC50 for (−)citronellal-induced cAMP production, rho-tag(39)-Olfr49 stable cell line, n=2); 3.9 µM and 4 µM at rho-tag(39)-Olfr49 [1] (EC50 for (−)citronellal-induced Ca2+ influx, transiently transfected rho-tag(39)-Olfr49, forskolin-pre-treated); 2.1 µM at rho-tag(39)-Olfr49 [1] (setting [5]). Further, the “Response in single cell Ca2+ imaging” value on mOR267-1 (1 μM), at Olfr49 (1 μM) and at Olfr43 was “selectively responded” in each case. Also, the “Responding OR chimeras” value is 3% in assay [3] (odorant 1 μM) and 43% in assay [3] (odorant 3 μM). Further, in [3] (subgroup of 67 OR chimeras, odorant 1 μM, n=1), the “Percentage of responding ORs” value was 9%. Also, the half-inhibitory concentration (IC50) on CNGA2 channel (IC50 for block of db-cAMP-induced Ca2+ influx by CNGA2, db-cAMP-pre-treated HeLa-Cx43/CNGA2 cells, FLIPR) was 108 µM and 132 µM.

Consider `CC(C)=CCCC(C)CCO` (stereo not drawn) [beta-citronellol], for which the “Response in single cell Ca2+ imaging” value at mOR267-1 (10 μM), in the assay on mOR261-10 and at Olfr49 (10 μM) was “selectively responded” throughout. Moreover, the EC50 on rho-tag(39)-Olfr49 [1] (setting [5]) was found to be 32.8 ± 2.7 µM. In assay [3] (odorant 10 μM), the “Responding OR chimeras” value came to 22%. The “Block of db-cAMP-induced Ca2+ influx by CNGA2” value (shortened to “Block”) at CNGA2 channel (at up to 3 mM) is reported as “did not block”.

In the case of `Nc1nc2c(ncn2[C@@H]2O[C@@H]3COP(=O)(O)O[C@H]3[C@H]2O)c(=O)[nH]1` [cGMP], in [4], the concentration for a half-maximal effect (EC50) was 3 µM and the “EC50 for cGMP lower than the one for cAMP” value is on record as 20 fold.

Regarding `CC(C)=CCCC(C)CC(=O)O` (centres unmarked) [citronellic acid], the “Response of the 93 OR chimeras” value in assay [3] (up to 10 μM, n=2) is given as “None of the 93 OR chimeras responded”. Besides, the “Block” value on CNGA2 channel (at up to 300 μM) is “did not block”.

With `CCCCCCC=O` [heptanal], the 50% effective concentration (EC50) on rho-tag(39)-Olfr49 [1] (stably expressed rho-tag(39)-Olfr49, forskolin-pre-treated, read-out: EC50 for odorant-induced Ca2+ influx) is 6 ± 1 µM. Moreover, the “Ca2+ influx” value in the assay on rho-tag(39)-Olfr41 was “triggered the Ca2+ influx”. The “Block” value at CNGA2 channel (at up to 100 μM) was “did not block”.

As to `O=C(O)CCCCCCCC(=O)O` [nonandione acid], the “Ca2+ influx” value in the assay on rho-tag(39)-Ors6 is “induced a Ca2+ influx”.

Consider `CCCCCCCC=O` [octanal], for which, at rho-tag(39)-Olfr49 [1] (setting [5]), the EC50 worked out at 3.7 ± 0.1 µM. Moreover, at CNGA2 channel (at up to 100 μM), the “Block” value is on record as “did not block”.

On to `C/C=C(/C)C(=O)O[C@H]1C(C)=C2[C@H]([C@@H]1OC(=O)CCCCCCC)[C@@](C)(OC(C)=O)C[C@H](OC(=O)CCC)[C@@]1(O)[C@H]2OC(=O)[C@@]1(C)O` [thapsigargin], for which the “Effect of pre-treatment on (−)citronellal-induced cAMP production” value was “reduced” on rho-tag(39)-Olfr49 [2] (cells transfected with hG-alpha-olf) and “significantly increased” on rho-tag(39)-Olfr49 [2] (cells without hG-alpha-olf, compared to cells without pre-treatment, forskolin 2.5 μM).

The term EC50 denotes the concentration needed to bring the measured effect to its halfway point. By IC50 is commonly meant the point on the concentration scale where inhibition reaches its midpoint.
